Source: US11173151B2, “Substituted triazole derivatives and uses thereof” (BAYER AKTIENGESELLSCHAFT, priority 2017, dated 2021)

Columns and labels:
[1] = target: T1, human V1a receptor (Homo sapiens, UniProt P37288); test: Cellular in vitro assay for determining vasopressin receptor activity, V1a receptor cell line (CHO, aequorin luminescence); type: cell-based; conditions: for IC50: CHO cell line transfected with human V1a receptor, [Arg]-vasopressin at EC50 concentration, read-out: IC50 hV1a; for ratio IC50 hV2/hV1a: selectivity ratio IC50 hV2 / IC50 hV1a
T1 construct: expressed in transfected cells; host or cells: CHO K1 (ATCC), also stably transfected with a modified aequorin
T1 sequence (P37288 whole entry): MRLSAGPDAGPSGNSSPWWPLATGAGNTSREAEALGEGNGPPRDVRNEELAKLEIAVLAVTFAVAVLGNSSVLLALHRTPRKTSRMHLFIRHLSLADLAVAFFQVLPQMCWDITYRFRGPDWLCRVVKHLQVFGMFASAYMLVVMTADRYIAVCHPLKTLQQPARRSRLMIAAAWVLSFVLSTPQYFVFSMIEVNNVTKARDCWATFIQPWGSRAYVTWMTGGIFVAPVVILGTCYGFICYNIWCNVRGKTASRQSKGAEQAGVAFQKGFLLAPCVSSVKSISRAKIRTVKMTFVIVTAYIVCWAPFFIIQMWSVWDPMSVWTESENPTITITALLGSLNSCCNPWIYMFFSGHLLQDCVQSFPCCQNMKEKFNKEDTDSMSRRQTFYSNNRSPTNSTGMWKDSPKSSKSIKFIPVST
Description: (§1) B-1. Cellular In Vitro Assay for Determining Vasopressin Receptor Activity
(§2) The identification of agonists and antagonists of the V1a and V2 vasopressin receptors from humans, rats and dogs as well as the quantification of the activity of the compounds of the invention is carried out using recombinant cell lines. These cell lines originally derive from a hamster's ovary epithelial cell (Chinese Hamster Ovary, CHO K1, ATCC: American Type Culture Collection, Manassas, Va. 20108, USA). The test cell lines constitutively express the human, rat or dog V1a or V2 receptors. In case of the Gαq-coupled V1a receptors, cells are also stably transfected with a modified form of the calcium-sensitive photoproteins aequorin (human and rat V1a) or obelin (dog V1a), which, after reconstitution with the cofactor coelenterazine, emit light when there are increases in free calcium concentrations [Rizzuto R, Simpson A W, Brini M, Pozzan T, Nature 358, 325-327 (1992); Illarionov B A, Bondar V S, Illarionova V A, Vysotski E S, Gene 153 (2), 273-274 (1995)]. The resulting vasopressin receptor cells react to stimulation of the recombinantly expressed V1a receptors by intracellular release of calcium ions, which can be quantified by the resulting photoprotein luminescence. The Gs-coupled V2 receptors are stably transfected into cell lines expressing the gene for firefly luciferase under control of a CRE-responsible promoter. Activation of V2 receptors induces the activation of the CRE-responsive promoter via cAMP increase, thereby inducing the expression of firefly luciferase. The light emitted by photoproteins of V1a cell lines as well as the light emitted by firefly luciferase of V2 cell lines corresponds to the activation or inhibition of the respective vasopressin receptor. The bioluminescence of the cell lines is detected using a suitable luminometer [Milligan G, Marshall F, Rees S, Trends in Pharmacological Sciences 17, 235-237 (1996)].
Vasopressin V1a Receptor Cell Lines:
On the day before the assay, the cells are plated out in culture medium (DMEM/F12, 2% FCS, 2 mM glutamine, 10 mM HEPES, 5 μg/ml coelenterazine) in 384-well microtiter plates and kept in a cell incubator (96% humidity, 5% v/v CO2, 37° C.). On the day of the assay, test compounds in various concentrations are placed for 10 minutes in the wells of the microtiter plate before the agonist [Arg]-vasopressin at EC50 concentration is added. The resulting light signal is measured immediately in a luminometer.
(§3) Table 1A below lists individual IC50 values for the compounds of the invention (including racemic mixtures as well as separated enantiomers) that were obtained from cell lines transfected with the human V1a or V2 receptor: […]

[2] = target: T2, human V2 receptor (Homo sapiens, UniProt P30518); test: Cellular in vitro assay for determining vasopressin receptor activity, V2 receptor cell line (CHO, CRE-luciferase); type: cell-based; conditions: CHO cell line transfected with human V2 receptor; [Arg8]-vasopressin at EC50 concentration, 3 hours; read-out: IC50 hV2
T2 construct: expressed in transfected cells; host or cells: CHO K1 (ATCC) expressing firefly luciferase under a CRE-responsive promoter
T2 sequence (P30518 whole entry): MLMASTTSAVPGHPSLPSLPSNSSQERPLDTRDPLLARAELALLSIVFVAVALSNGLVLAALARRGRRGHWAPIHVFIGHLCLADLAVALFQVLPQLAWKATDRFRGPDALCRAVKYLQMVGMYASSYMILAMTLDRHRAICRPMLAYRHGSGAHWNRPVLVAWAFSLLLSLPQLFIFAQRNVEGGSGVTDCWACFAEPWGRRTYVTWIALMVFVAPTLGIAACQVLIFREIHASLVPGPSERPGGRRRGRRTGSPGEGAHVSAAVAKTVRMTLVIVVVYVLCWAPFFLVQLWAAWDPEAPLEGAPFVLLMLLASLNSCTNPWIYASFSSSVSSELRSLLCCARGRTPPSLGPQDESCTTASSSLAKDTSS
Description: as §1, §2
Vasopressin V2 Receptor Cell Lines:
On the day before the assay, the cells are plated out in culture medium (DMEM/F12, 2% FCS, 2 mM glutamine, 10 mM HEPES) in 384-well microtiter plates and kept in a cell incubator (96% humidity, 5% v/v CO2, 37° C.). On the day of the assay, test compounds in various concentrations and the agonist [Arg^8]-vasopressin at EC50 concentration are added together to the wells, and plates are incubated for 3 hours in a cell incubator. Upon addition of the cell lysis reagent Triton™ and the substrate luciferin, luminescence of firefly luciferase is measured in a luminometer.
as §3

IC50 [1] | ratio IC50 hV2/hV1a [1] | IC50 [2] | SMILES
7.95 nM | 270.4 | 2150 nM | CC1CCC(C)N1C(=O)c1ccccc1-n1cnc(Cn2nc(-c3ccc(Cl)cc3)n(C[C@H](O)C(F)(F)F)c2=O)n1 (mixture of isomers) [Example 328, 5-(4-Chlorophenyl)-2-[(1-{2-[(2,5-dimethylpyrrolidin-1-yl)carbonyl]phenyl}-1H-1,2,4-triazol-3-yl)methyl]-4-[(2S)-3,3,3-trifluoro-2-hydroxypropyl]-2,4-dihydro-3H-1,2,4-triazol-3-one]
23.5 nM | 46.2 | 1080 nM | CC1CCCC(C)N1C(=O)c1ccccc1-n1cnc(Cn2nc(-c3ccc(Cl)cc3)n(C[C@H](O)C(F)(F)F)c2=O)n1 (mixture of isomers) [Example 337, 5-(4-Chlorophenyl)-2-[(1-{2-[(2,6-dimethylpiperidin-1-yl)carbonyl]phenyl}-1H-1,2,4-triazol-3-yl)methyl]-4-[(2S)-3,3,3-trifluoro-2-hydroxypropyl]-2,4-dihydro-3H-1,2,4-triazol-3-one]
2.7 nM | 351.9 | 950 nM | CC1CCCN(C(=O)c2ccccc2-n2cnc(Cn3nc(-c4ccc(Cl)cc4)n(C[C@H](O)C(F)(F)F)c3=O)n2)C1 (mixture of isomers) [Example 351, 5-(4-Chlorophenyl)-2-{[1-(2-{[3-methylpiperidin-1-yl]carbonyl}phenyl)-1H-1,2,4-triazol-3-yl]methyl}-4-[(2S)-3,3,3-trifluoro-2-hydroxypropyl]-2,4-dihydro-3H-1,2,4-triazol-3-one]
15 nM | 47.3 | 710 nM | O=C(NC1CC1(F)F)c1cccc(Cl)c1-n1cnc(Cn2nc(-c3ccc(Cl)cc3)n(C[C@H](O)C(F)(F)F)c2=O)n1 (mixture of isomers) [Example 371, 3-Chloro-2-[3-({3-(4-chlorophenyl)-5-oxo-4-[(2S)-3,3,3-trifluoro-2-hydroxypropyl]-4,5-dihydro-1H-1,2,4-triazol-1-yl}methyl)-1H-1,2,4-triazol-1-yl]-N-[2,2-difluorocyclopropyl]benzamide]
120 nM | 17.1 | 2050 nM | NC(=O)C1CCCN1C(=O)c1cccc(Cl)c1-n1cnc(Cn2nc(-c3ccc(Cl)cc3)n(C[C@H](O)C(F)(F)F)c2=O)n1 (mixture of isomers) [Example 378, 1-{3-Chloro-2-[3-({3-(4-chlorophenyl)-5-oxo-4-[(2S)-3,3,3-trifluoro-2-hydroxypropyl]-4,5-dihydro-1H-1,2,4-triazol-1-yl}methyl)-1H-1,2,4-triazol-1-yl]benzoyl}-prolinamide]
70.5 nM |  | 845 nM | O=C(c1cccc(Cl)c1-n1cnc(Cn2nc(-c3ccc(Cl)cc3)n(C[C@H](O)C(F)(F)F)c2=O)n1)N1CCC(O)(C(F)(F)F)C1 (mixture of isomers) [Example 379, 2-{[1-(2-Chloro-6-{[hydroxy-3-(trifluoromethyl)pyrrolidin-1-yl]carbonyl}phenyl)-1H-1,2,4-triazol-3-yl]methyl}-5-(4-chlorophenyl)-4-[(2S)-3,3,3-trifluoro-2-hydroxypropyl]-2,4-dihydro-3H-1,2,4-triazol-3-one]

Continued, compound first:

SMILES | IC50 [1] | ratio IC50 hV2/hV1a [1] | IC50 [2]
CC1CCCCC1NC(=O)c1ccccc1-n1cnc(Cn2nc(-c3ccc(Cl)cc3)n(C[C@H](O)C(F)(F)F)c2=O)n1 (mixture of isomers) [Example 319, 2-[3-({3-(4-Chlorophenyl)-5-oxo-4-[(2S)-3,3,3-trifluoro-2-hydroxypropyl]-4,5-dihydro-1H-1,2,4-triazol-1-yl}methyl)-1H-1,2,4-triazol-1-yl]-N-(2-methylcyclohexyl)benzamide] | 3.55 nM | 91.5 | 325 nM
CC1CC(C)CN(C(=O)c2ccccc2-n2cnc(Cn3nc(-c4ccc(Cl)cc4)n(C[C@H](O)C(F)(F)F)c3=O)n2)C1 (mixture of isomers) [Example 326, 5-(4-Chlorophenyl)-2-[(1-{2-[(3,5-dimethylpiperidin-1-yl)carbonyl]phenyl}-1H-1,2,4-triazol-3-yl)methyl]-4-[(2S)-3,3,3-trifluoro-2-hydroxypropyl]-2,4-dihydro-3H-1,2,4-triazol-3-one] | 8.3 nM | 180.7 | 1500 nM
CC(C)C(C)NC(=O)c1ccccc1-n1cnc(Cn2nc(-c3ccc(Cl)cc3)n(C[C@H](O)C(F)(F)F)c2=O)n1 (mixture of isomers) [Example 345, 2-[3-({3-(4-Chlorophenyl)-5-oxo-4-[(2S)-3,3,3-trifluoro-2-hydroxypropyl]-4,5-dihydro-1H-1,2,4-triazol-1-yl}methyl)-1H-1,2,4-triazol-1-yl]-N-[(2R)-3-methylbutan-2-yl]benzamide] | 3.2 nM | 37.2 | 119 nM
CC1CCCN1C(=O)c1ccccc1-n1cnc(Cn2nc(-c3ccc(Cl)cc3)n(C[C@H](O)C(F)(F)F)c2=O)n1 (mixture of isomers) [Example 355, 5-(4-Chlorophenyl)-2-{[1-(2-{[2-methylpyrrolidin-1-yl]carbonyl}phenyl)-1H-1,2,4-triazol-3-yl]methyl}-4-[(2S)-3,3,3-trifluoro-2-hydroxypropyl]-2,4-dihydro-3H-1,2,4-triazol-3-one] | 1.75 nM | 362.9 | 635 nM
O=C(NC1CC1F)c1ccccc1-n1cnc(Cn2nc(-c3ccc(Cl)cc3)n(C[C@H](O)C(F)(F)F)c2=O)n1 (mixture of isomers) [Example 364, 2-[3-({3-(4-Chlorophenyl)-5-oxo-4-[(2S)-3,3,3-trifluoro-2-hydroxypropyl]-4,5-dihydro-1H-1,2,4-triazol-1-yl}methyl)-1H-1,2,4-triazol-1-yl]-N-(2-fluorocyclopropyl)benzamide] | 0.47 nM | 329.8 | 155 nM
O=C(NCC(O)C(F)(F)F)c1cccc(Cl)c1-n1cnc(Cn2nc(-c3ccc(Cl)cc3)n(C[C@H](O)C(F)(F)F)c2=O)n1 (mixture of isomers) [Example 367, 3-Chloro-2-[3-({3-(4-chlorophenyl)-5-oxo-4-[(2S)-3,3,3-trifluoro-2-hydroxypropyl]-4,5-dihydro-1H-1,2,4-triazol-1-yl}methyl)-1H-1,2,4-triazol-1-yl]-N-[3,3,3-trifluoro-2-hydroxypropyl]benzamide] | 45 nM | 5.8 | 260 nM
O=C(NCC(O)C(F)(F)F)c1cccc(Cl)c1-n1cnc(Cn2nc(-c3ccc(Cl)cc3)n(C[C@@H](O)C(F)(F)F)c2=O)n1 (mixture of isomers) [Example 368, 3-Chloro-2-[3-({3-(4-chlorophenyl)-5-oxo-4-[(2R)-3,3,3-trifluoro-2-hydroxypropyl]-4,5-dihydro-1H-1,2,4-triazol-1-yl}methyl)-1H-1,2,4-triazol-1-yl]-N-[3,3,3-trifluoro-2-hydroxypropyl]benzamide] | 350 nM | 6.0 | 2100 nM
CC1CN(C(=O)c2cccc(Cl)c2-n2cnc(Cn3nc(-c4ccc(Cl)cc4)n(C[C@H](O)C(F)(F)F)c3=O)n2)CCO1 (mixture of isomers) [Example 377, 2-{[1-(2-Chloro-6-{[2-methylmorpholin-4-yl]carbonyl}phenyl)-1H-1,2,4-triazol-3-yl]methyl}-5-(4-chlorophenyl)-4-[(2S)-3,3,3-trifluoro-2-hydroxypropyl]-2,4-dihydro-3H-1,2,4-triazol-3-one] | 295 nM | 29.2 | 8600 nM
